Consider 1 molecule from BindingDB's records for patent US11220486 (LA JOLLA INSTITUTE OF ALLERGY & IMMUNOLOGY; SANFORD BURNHAM …, 2022).

Each structure is given as a SMILES string.

The assay has as its target T1, Low molecular weight phosphotyrosine protein phosphatase (Homo sapiens, UniProt P24666).
T1 sequence (P24666 whole entry): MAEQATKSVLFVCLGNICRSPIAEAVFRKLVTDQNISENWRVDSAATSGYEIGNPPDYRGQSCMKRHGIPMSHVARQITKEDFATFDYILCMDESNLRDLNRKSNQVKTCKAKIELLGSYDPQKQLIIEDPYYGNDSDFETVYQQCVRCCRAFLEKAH
Nature of the assay: LMPTP Primary Screening Protocol. How it is done: A listing of materials is provided: Item, source, catalog no. […] Prepare Reagents as described in section F. Recipe. 2. Using LabCyte Echo, transfer 60 nL from 2 mM test compound source plate into assay plate Col. 5-48 (final concentration of test compounds is 20 μM). 60 nL of DMSO should be transferred to col. 1-4 for positive and negative control wells. 3. Spin plates at 1000 rpm for 1 minute in centrifuge. 4. Using the Beckman Coulter Bioraptr, add 3 μL/well of control buffer to columns 1 and 2. 5. Using the Bioraptr, add 3 μL/well of enzyme solution to col. 3-48. 6. Using the Bioraptr, add 3 μL/well of substrate solution to col. 1-48. 7. Spin plates at 1000 rpm for 1 minute in centrifuge. 8. Incubate plates in the dark at room temperature for 50 minutes. 9. Read plates on PerkinElmer Viewlux using a FI protocol.

For orientation: IC50 means the point on the concentration scale where inhibition reaches its midpoint. A lower IC50 goes with greater potency. With `CC(C)(C)OC(=O)C1(c2cc(NCCCC3CCCNC3)c3ccccc3n2)C=c2ccccc2=N1` (stereo unspecified) [US11220486, Compound I98], the IC50 is > 5 µM.
